Measurements taken from PubChem BioAssay AID1996.
Converted amounts (≈) assume the structure as drawn.

details: buffer; pH 7.4; 200.0 µM

Row | Structure (SMILES) | solubility kinetic [µg/mL]
1 | COC(=O)c1cc(C(=O)OCC(=O)Nc2ccc(N3CCOCC3)cc2)cc([N+](=O)[O-])c1 | 11.8 (≈ 26.6 µM)
2 | CC(=O)c1cn(Cc2ccc(F)cc2)c2ccccc12 | 1.9 (≈ 7.11 µM)
3 | O=C(CNCc1ccc(F)cc1)Nc1cc(S(=O)(=O)N2CCOCC2)ccc1Cl | 8.4 (≈ 19 µM)
4 | O=C(O)c1ccc2c(c1)C(=O)N(Cc1ccco1)C2=O | > 40.7
5 | CNC(=O)CSc1nnc(-c2ccccc2)n1C | > 39.3
6 | O=C(COC(=O)c1ccc([N+](=O)[O-])cc1)Nc1ccccc1C(=O)NC1CC1 | 8.5 (≈ 22.2 µM)
7 | CN1CCN(C(=O)/C(=C/c2ccccc2F)NC(=O)c2ccccc2)CC1 | > 55.1
8 | C=CCNC(=O)c1cnc(-c2ccccc2)nc1-c1ccccc1 | 0.7 (≈ 2.22 µM)
9 | O=c1cc(O)c2sc3nc(C(F)(F)F)c4c(c3c2[nH]1)CCCCC4 | > 53.2
10 | NC(=O)c1ccccc1NC(=O)c1ccc2c(c1)OCO2 | 3.1 (≈ 10.9 µM)
11 | Cc1ccc(Cn2ccsc2=NC(=O)COC(=O)C(C)C)cc1 | 45.3 (≈ 136 µM)
12 | Cc1ccc(C(=O)N2c3ccccc3CC2C)o1 (centres undefined) | 31.6 (≈ 131 µM)
13 | CCOCCCNC(=O)/C(C#N)=C/c1cc(C)c(O)c(C)c1 | 7 (≈ 23.2 µM)
14 | c1cnc2ccc(-c3ccc4ncccc4c3)cc2c1 | 7.7 (≈ 30 µM)
15 | O=C(c1ccc([N+](=O)[O-])cc1[N+](=O)[O-])N1CCc2ccccc21 | 4.2 (≈ 13.4 µM)
16 | CC1CCC(NCCNC(=O)c2ccco2)CC1 (centres undefined) | 26.7 (≈ 107 µM)
17 | O=C(Cn1ccc([N+](=O)[O-])n1)NCC1CCCO1 (centres undefined) | > 38.1
18 | COc1ccc(NC(=O)c2ccc3ccccc3c2)cc1 | < 0.6
19 | CCCCCc1cc(O)c2c3c(c(=O)oc2c1)CN(C)CC3 | < 0.6
20 | O=C1CSC(c2ccc([N+](=O)[O-])cc2)N1c1ccccc1 (centres undefined) | 42 (≈ 140 µM)
21 | O=C(N/C(=C/c1ccc(F)cc1)C(=O)N1CCCCC1)c1ccco1 | > 51.4

Row | Structure (SMILES) | solubility kinetic [µg/mL]
22 | Cn1ncc([N+](=O)[O-])c1C(=O)N1CCCCCC1 | > 37.8
23 | Cc1ccc(NC(=O)C2CCN(c3nc(C)cc(C)n3)CC2)cc1 | 2.4 (≈ 7.4 µM)
24 | CCCC1(CCC)NC(=O)N(CC(=O)Nc2ccc3c(c2)OCCO3)C1=O | > 56.3
25 | O=C(O)CCn1c(SCCOc2ccccc2F)nc2ccccc21 | > 54.1
26 | Cc1cc(NS(=O)(=O)c2ccc3c(c2)OCCO3)no1 | 31.2 (≈ 105 µM)
27 | O=[N+]([O-])c1ccc(Nc2ccccc2O)c2nonc12 | > 40.8
28 | O=C(Nc1cc(Cl)cc(Cl)c1)c1cccnc1 | 17.6 (≈ 65.9 µM)
29 | N#CC1(c2ccccc2)CCC(=O)N1c1ccccc1 (centres undefined) | > 39.3
30 | COCCN1CCn2c(nc3cc(NC(C)=O)ccc32)C1 | 36.4 (≈ 126 µM)
31 | CCn1c(=O)c2c(nc(SCC(=O)N3CCC(C)CC3)n2C)n(C)c1=O | > 56.9
32 | Cc1ccc(C(=O)OCC(=O)N2CCOCC2)c(C)c1 | 34 (≈ 123 µM)
33 | O=C(N/C(=C/c1ccco1)C(=O)N1CCc2ccccc21)c1ccco1 | 4.4 (≈ 12.6 µM)
34 | Cc1cccc(C(=O)N2CCCC(c3nc(-c4ccc(F)cc4)no3)C2)c1 (centres undefined) | 12.4 (≈ 33.9 µM)
35 | COc1ccc(CCNC(=O)COC(=O)c2cncc(Br)c2)cc1OC | > 63.5
36 | CC(C)c1ccc(N(C)C(=O)Cc2c(C(=O)O)n(C)c3ccccc23)cc1 | > 54.7
37 | Cc1cccc(NC(=S)Nc2ccccn2)c1 | 1.6 (≈ 6.58 µM)
38 | COc1ccc(CNC(=O)c2cccc(NC(=O)CC3SC(N4CCCCC4)=NC3=O)c2)cc1 (centres undefined) | 7.6 (≈ 15.8 µM)
39 | S=C([S-])N1CCCC1.[NH4+] | 16.6
40 | O=C(COc1ccccc1)NC1CCCCCCC1 | 36.2 (≈ 139 µM)
41 | CCCc1cc(=O)oc2cc(OCC(=O)N3CCOCC3)c(Cl)cc12 | 3.8 (≈ 10.4 µM)
42 | Cc1ccccc1OC(C)C(=O)Nc1ccc2c(c1)OCO2 (centres undefined) | 38.8 (≈ 130 µM)

Row | Structure (SMILES) | solubility kinetic [µg/mL]
43 | CCCCOc1ccc(C(=O)N2CCNC(=O)C2)cc1 | > 41.5
44 | O=C1C(Cl)=C(NCc2cccnc2)C(=O)c2ccccc21 | 6.9 (≈ 23.1 µM)
45 | O=C(CN1CCCCCC1)Nc1ccc(Cl)cn1 | 35.3 (≈ 132 µM)
46 | CC(=O)N1CCN(C(=O)c2oc3ccccc3c2C)CC1 | > 42.9
47 | Cc1ccc(C)c(Nc2nc(-c3ccncc3)nc3ccccc23)c1 | < 0.2
48 | O=C(COC(=O)c1ccc(O)cc1)Nc1ccc(OC(F)F)cc1 | 29.9 (≈ 88.7 µM)
49 | COc1ccccc1CNC(=O)CN1C(=O)NC2(CCOc3ccccc32)C1=O (centres undefined) | 7.9 (≈ 20 µM)
50 | COc1ccc(OC)c(NC(=O)c2cccc(NC(=O)c3ccccc3)c2)c1 | 9.8 (≈ 26 µM)
51 | COCCn1c(SCC(=O)NC2CCCC2)nnc1-c1ccco1 | > 52.6
52 | CCOC(=O)C(C)Sc1nc(N2CCOCC2)c2c(c1C#N)CC(C)(C)OC2 (centres undefined) | 38.8 (≈ 95.7 µM)
53 | COCCNc1c2c(c(C#N)c3nc4ccccc4n13)CCCC2 | 11.8 (≈ 36.8 µM)
54 | COc1cc([N+](=O)[O-])ccc1NC(=S)N1CCN(c2ccccn2)CC1 | 12.2 (≈ 32.7 µM)
55 | Cc1ccc(/C=N\NC(=O)C2CC(=O)N(c3ccccc3)C2)o1 (centres undefined) | > 46.7
56 | Cc1cc(=O)cc(C)n1-c1ccc(F)cc1F | > 35.3
57 | Nc1nc(SCc2ccc(F)cc2)ns1 | 33.6 (≈ 139 µM)
58 | Cc1ccc(C)c(NC(=O)C2CCCN2C(=O)NC2CCCCC2)c1 (centres undefined) | 29 (≈ 84.4 µM)
59 | NS(=O)(=O)c1ccc(S(=O)(=O)c2ccccc2)nc1 | > 44.7
60 | Cc1cc(Cl)ccc1NC(=O)CCC(=O)N/N=C/c1cccnc1 | > 51.7
61 | CCOC(=O)C(=CNc1cc(C)ccc1[N+](=O)[O-])C(=O)OCC | < 0.3
62 | CC(C)(C)N1C(=O)c2ccc(C(=O)Nc3ccc(O)cc3)cc2C1=O | 17.4 (≈ 51.4 µM)
63 | O=C(Nc1cc(=O)[nH]c(=O)[nH]1)c1cccc(C(F)(F)F)c1 | > 44.9

Row | Structure (SMILES) | solubility kinetic [µg/mL]
64 | CCN=C1S/C(=C\c2cc(Br)c(O)c(OC)c2)C(=O)N1CC | 1.3 (≈ 3.37 µM)
65 | Cc1ccc(S(=O)(=O)NCC(=O)OCc2ccccc2)cc1 | 40.3 (≈ 126 µM)
66 | CN(C)C(=S)Nc1ccc(Br)cc1Cl | 23.4 (≈ 79.7 µM)
67 | O=C(c1csc(Nc2cccc3ccccc23)n1)N1CCCC1 | 13.1 (≈ 40.5 µM)
68 | Cc1cc(C)c(C)c(S(=O)(=O)NC2CCCCC2)c1C | < 0.6
69 | COC(=O)c1cc(C(=O)NC(C)(C)CC(C)(C)C)cc([N+](=O)[O-])c1 | 17.8 (≈ 52.9 µM)
70 | Cc1cc(C(=O)N2CCC(C(=O)O)CC2)c(C)o1 | > 37.7
71 | COC(=O)c1cc2cc(Cl)ccc2nc1SC | < 0.6
72 | Cn1cc(C(=O)N2CCCCC2)c2ccccc21 | > 36.3
73 | COc1ccc(CN2CCN(C3CCC3)CC2CCO)c(F)c1 (centres undefined) | 42.2 (≈ 131 µM)
74 | CN(C1=NC(=O)CS1)c1ccc(O)cc1 | > 33.3
75 | CC(C)(C)c1ccc(C(=O)NCC(=O)N2CCCCCC2)cc1 | > 47.5
76 | O=C(COC(=O)c1ccc(O)cc1O)Nc1ccc(Cl)cn1 | 46.5 (≈ 144 µM)
77 | Nc1nonc1C(=O)NCCNC(=O)c1cccc(Cl)c1 | 45.8 (≈ 148 µM)
78 | COc1ccccc1C(CNc1ncccc1[N+](=O)[O-])N(C)C (centres undefined) | > 47.5
79 | Cc1ccc(C(=O)Nc2ccccc2Oc2ccccc2)o1 | 12.5 (≈ 42.6 µM)
80 | COc1ccc(S(=O)(=O)NCc2cccnc2)cc1 | > 41.7
81 | CC(NC(=O)c1ccco1)C(=O)Nc1nccs1 (centres undefined) | > 39.8
82 | O=C(CCSc1nc2ccccc2o1)Nc1ccccc1 | 4.2 (≈ 14.1 µM)
83 | Cc1ccsc1C(=O)OC(C)C(=O)NC1CCCCC1C (centres undefined) | 6.4 (≈ 20.7 µM)
84 | O=C(COC(=O)c1cccs1)NCCc1ccc(F)cc1 | 42.2 (≈ 137 µM)
